Measured values published in the kinase profiling compilation of Christmann-Franck et al. (2016).
“And” between values parts separate entries of the source, which are not always exact repeats. Equal entries are not always repeated.

Columns and labels:
Assay in all cases: radiometric filter-binding kinase assay, Kinase HotSpot
Conditions in all cases: compound 0.5 µM; ATP 10 µM
ABL2 (human) = ABL2 (human) (UniProt P42684)
AURKA (human) = AURKA (human) (UniProt O14965)
AURKB (human) = AURKB (human) (UniProt Q96GD4)
BLK (human) = BLK (human) (UniProt P51451)
BMX (human) = BMX (human) (UniProt P51813)
BRSK1 (human) = BRSK1 (human) (UniProt Q8TDC3)
CAMK2G (human) = CAMK2G (human) (UniProt Q13555)
CAMK2G (human), sequence (Q13555 whole entry, looked up): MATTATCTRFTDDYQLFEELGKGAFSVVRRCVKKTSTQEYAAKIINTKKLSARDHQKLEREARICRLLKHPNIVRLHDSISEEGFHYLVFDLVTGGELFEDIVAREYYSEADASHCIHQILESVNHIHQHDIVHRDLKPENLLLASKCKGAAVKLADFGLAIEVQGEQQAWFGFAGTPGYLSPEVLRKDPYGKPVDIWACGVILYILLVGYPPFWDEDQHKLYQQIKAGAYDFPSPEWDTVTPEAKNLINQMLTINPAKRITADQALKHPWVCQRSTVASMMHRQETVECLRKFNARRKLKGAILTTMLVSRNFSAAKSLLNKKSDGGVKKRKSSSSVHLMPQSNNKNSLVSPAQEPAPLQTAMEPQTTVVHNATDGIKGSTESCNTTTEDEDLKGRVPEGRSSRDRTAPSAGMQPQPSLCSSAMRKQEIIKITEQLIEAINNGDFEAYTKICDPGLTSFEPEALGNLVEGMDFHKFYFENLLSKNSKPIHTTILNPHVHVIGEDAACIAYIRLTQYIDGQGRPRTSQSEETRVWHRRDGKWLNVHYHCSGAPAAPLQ

CAMK4 (human) = CAMK4 (human) (UniProt Q16566)
CDK1 CCNA2 (human) = CDK1 CCNA2 (human) (UniProt P06493+P20248)
CHEK2 (human) = CHEK2 (human) (UniProt O96017)
DAPK3 (human) = DAPK3 (human) (UniProt O43293)
DAPK3 (human), sequence (O43293 whole entry, looked up): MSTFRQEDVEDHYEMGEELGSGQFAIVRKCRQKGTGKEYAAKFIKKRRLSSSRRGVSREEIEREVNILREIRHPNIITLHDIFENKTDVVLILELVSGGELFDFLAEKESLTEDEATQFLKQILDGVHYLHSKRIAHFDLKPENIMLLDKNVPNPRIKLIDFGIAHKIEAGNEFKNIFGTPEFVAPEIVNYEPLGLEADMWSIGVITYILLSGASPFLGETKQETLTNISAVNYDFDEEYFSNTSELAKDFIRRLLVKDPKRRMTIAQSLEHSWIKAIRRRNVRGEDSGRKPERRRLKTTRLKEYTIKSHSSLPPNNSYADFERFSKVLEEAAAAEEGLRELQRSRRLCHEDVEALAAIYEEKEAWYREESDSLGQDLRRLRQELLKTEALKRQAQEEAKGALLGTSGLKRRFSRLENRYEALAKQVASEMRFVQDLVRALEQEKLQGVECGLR

DSTYK (human) = DSTYK (human) (UniProt Q6XUX3)
DYRK3 (human) = DYRK3 (human) (UniProt O43781)
EPHA2 (human) = EPHA2 (human) (UniProt P29317)
EPHA3 (human) = EPHA3 (human) (UniProt P29320)
EPHA4 (human) = EPHA4 (human) (UniProt P54764)
EPHA4 (human), sequence (P54764 whole entry, looked up): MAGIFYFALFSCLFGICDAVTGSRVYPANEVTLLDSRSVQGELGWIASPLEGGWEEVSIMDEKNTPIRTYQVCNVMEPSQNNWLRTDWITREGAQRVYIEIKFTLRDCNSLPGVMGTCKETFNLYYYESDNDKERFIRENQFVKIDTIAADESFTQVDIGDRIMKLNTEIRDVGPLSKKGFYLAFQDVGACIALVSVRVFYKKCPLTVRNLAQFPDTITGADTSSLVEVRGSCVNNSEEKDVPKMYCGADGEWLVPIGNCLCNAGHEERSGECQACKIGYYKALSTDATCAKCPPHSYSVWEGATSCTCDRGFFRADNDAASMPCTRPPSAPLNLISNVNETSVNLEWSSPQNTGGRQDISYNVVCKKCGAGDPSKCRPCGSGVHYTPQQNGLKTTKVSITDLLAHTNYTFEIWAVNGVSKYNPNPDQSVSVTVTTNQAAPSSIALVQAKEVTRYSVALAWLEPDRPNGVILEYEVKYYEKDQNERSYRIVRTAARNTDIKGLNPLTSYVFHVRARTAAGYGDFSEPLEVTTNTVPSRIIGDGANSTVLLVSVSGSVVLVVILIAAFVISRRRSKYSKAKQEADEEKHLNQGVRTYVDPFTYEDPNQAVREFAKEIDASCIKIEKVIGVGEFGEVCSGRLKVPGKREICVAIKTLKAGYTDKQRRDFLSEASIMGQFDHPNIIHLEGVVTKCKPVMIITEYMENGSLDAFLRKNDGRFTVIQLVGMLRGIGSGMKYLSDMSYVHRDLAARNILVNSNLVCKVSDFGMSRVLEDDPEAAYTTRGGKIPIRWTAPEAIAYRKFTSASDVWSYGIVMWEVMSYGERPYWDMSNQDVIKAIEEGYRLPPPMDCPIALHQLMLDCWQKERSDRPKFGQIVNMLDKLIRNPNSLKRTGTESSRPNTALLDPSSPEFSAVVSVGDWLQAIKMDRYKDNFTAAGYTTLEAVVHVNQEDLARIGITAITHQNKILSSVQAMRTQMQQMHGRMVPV

EPHB2 (human) = EPHB2 (human) (UniProt P29323)
FGFR3 (human) = FGFR3 (human) (UniProt P22607)
FLT3 (human) = FLT3 (human) (UniProt P36888)
FYN (human) = FYN (human) (UniProt P06241)
GSG2 (human) = GSG2 (human) (UniProt Q8TF76)
IRAK1 (human) = IRAK1 (human) (UniProt P51617)
LTK (human) = LTK (human) (UniProt P29376)
MAP2K1 (human) = MAP2K1 (human) (UniProt Q02750)
MAP3K14 (human) = MAP3K14 (human) (UniProt Q99558)
MAPK11 (human) = MAPK11 (human) (UniProt Q15759)
MAPK11 (human), sequence (Q15759 whole entry, looked up): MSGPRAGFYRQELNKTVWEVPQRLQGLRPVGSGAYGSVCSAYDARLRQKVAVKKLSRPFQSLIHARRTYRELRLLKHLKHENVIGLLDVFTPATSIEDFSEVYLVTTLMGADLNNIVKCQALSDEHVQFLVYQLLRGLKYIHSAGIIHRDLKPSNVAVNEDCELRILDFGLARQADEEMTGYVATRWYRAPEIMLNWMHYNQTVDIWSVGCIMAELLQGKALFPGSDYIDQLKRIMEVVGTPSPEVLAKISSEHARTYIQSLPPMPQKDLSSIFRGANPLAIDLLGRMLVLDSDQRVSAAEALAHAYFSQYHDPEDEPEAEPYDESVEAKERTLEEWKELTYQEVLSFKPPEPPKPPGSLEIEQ

MARK2 (human) = MARK2 (human) (UniProt Q7KZI7)
MINK1 (human) = MINK1 (human) (UniProt Q8N4C8)
MLTK (human) = MLTK (human) (UniProt Q9NYL2)
MLTK (human), sequence (Q9NYL2 whole entry, looked up): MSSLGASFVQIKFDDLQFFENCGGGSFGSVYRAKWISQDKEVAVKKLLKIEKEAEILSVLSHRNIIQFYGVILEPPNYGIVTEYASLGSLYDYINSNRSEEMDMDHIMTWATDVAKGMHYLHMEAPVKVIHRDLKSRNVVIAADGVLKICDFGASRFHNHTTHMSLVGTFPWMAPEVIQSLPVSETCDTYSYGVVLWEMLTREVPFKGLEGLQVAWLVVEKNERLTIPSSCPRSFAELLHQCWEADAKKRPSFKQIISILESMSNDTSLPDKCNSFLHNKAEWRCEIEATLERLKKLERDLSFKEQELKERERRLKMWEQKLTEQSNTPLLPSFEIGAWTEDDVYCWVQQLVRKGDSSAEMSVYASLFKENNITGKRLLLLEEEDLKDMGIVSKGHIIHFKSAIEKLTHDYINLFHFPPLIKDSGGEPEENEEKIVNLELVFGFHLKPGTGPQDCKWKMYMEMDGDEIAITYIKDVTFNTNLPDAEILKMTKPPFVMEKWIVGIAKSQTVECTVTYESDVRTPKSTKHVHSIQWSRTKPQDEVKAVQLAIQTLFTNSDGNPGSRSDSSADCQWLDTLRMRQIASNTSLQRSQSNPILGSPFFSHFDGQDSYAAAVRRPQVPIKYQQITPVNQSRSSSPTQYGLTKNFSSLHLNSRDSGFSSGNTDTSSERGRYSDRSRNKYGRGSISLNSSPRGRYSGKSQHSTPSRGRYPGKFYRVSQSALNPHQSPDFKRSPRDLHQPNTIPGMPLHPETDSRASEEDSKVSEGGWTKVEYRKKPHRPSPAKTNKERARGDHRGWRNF

MST4 (human) = MST4 (human) (UniProt Q9P289)
MST4 (human), sequence (Q9P289 whole entry, looked up): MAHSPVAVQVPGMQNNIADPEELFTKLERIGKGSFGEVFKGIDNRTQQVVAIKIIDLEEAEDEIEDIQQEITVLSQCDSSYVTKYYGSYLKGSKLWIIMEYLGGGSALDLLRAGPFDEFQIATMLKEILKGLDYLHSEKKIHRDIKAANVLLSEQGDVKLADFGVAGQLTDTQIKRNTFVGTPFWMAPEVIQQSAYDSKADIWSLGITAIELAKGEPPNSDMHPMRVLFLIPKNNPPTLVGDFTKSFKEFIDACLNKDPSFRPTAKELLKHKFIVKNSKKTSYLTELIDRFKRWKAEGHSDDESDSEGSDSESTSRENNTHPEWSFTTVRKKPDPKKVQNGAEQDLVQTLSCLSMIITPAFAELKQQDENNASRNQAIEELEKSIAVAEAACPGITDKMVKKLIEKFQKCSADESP

PAK1 (human) = PAK1 (human) (UniProt Q13153)
PAK3 (human) = PAK3 (human) (UniProt O75914)
PDGFRA (human) = PDGFRA (human) (UniProt P16234)
PDGFRB (human) = PDGFRB (human) (UniProt P09619)
PNCK (human) = PNCK (human) (UniProt Q6P2M8)
PNCK (human), sequence (Q6P2M8 whole entry, looked up): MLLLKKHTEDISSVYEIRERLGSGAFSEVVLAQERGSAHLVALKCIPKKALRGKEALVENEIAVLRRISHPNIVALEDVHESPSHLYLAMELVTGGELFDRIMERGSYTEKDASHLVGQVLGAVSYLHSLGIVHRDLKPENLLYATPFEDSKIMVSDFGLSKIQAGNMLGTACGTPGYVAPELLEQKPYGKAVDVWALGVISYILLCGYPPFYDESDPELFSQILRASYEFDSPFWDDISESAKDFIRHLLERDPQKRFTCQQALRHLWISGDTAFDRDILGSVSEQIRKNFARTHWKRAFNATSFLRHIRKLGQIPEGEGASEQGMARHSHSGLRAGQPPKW

PRKCE (human) = PRKCE (human) (UniProt Q02156)
PRKCE (human), sequence (Q02156 whole entry, looked up): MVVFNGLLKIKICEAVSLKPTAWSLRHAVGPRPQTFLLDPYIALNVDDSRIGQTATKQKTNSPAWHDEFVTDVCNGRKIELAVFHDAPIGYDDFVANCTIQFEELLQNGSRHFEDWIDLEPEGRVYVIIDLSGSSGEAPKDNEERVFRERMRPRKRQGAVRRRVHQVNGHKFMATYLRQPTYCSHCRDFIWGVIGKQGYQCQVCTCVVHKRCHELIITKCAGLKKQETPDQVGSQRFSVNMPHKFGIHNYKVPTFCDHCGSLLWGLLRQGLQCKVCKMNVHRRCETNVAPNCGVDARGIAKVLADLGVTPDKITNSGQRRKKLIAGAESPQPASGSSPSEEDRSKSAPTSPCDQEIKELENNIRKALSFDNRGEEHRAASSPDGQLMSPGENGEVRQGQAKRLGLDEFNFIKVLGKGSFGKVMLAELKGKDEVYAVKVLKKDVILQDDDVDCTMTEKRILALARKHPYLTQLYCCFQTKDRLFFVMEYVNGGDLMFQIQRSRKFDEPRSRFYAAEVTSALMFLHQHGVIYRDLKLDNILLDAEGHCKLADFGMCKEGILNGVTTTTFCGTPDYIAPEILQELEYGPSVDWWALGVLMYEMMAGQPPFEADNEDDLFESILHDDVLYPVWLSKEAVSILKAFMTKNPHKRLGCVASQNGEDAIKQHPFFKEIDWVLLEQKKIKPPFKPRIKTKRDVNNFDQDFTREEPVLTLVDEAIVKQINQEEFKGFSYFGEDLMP

PRKG1 (human) = PRKG1 (human) (UniProt Q13976)
PRKX (human) = PRKX (human) (UniProt P51817)
PRKX (human), sequence (P51817 whole entry, looked up): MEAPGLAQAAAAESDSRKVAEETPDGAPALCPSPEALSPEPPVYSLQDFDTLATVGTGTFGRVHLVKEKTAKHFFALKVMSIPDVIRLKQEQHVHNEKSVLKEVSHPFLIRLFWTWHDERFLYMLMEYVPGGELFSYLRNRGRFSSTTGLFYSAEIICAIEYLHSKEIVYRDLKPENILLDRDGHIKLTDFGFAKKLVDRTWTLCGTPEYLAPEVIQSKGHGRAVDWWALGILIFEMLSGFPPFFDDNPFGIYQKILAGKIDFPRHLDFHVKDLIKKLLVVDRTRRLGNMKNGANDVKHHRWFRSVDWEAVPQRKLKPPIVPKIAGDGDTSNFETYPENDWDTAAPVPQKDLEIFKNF

ROCK2 (human) = ROCK2 (human) (UniProt O75116)
RPS6KB2 (human) = RPS6KB2 (human) (UniProt Q9UBS0)
TEK (human) = TEK (human) (UniProt Q02763)
TXK (human) = TXK (human) (UniProt P42681)

O=c1c2ccccc2[nH]c(=S)n1CCN1CCC(=C(c2ccc(F)cc2)c2ccc(F)cc2)CC1
residual activity (ABL2 (human)): 103% | residual activity (AURKA (human)): 100% | residual activity (AURKB (human)): 102% | residual activity (BLK (human)): 102% | residual activity (BMX (human)): 85.5% | residual activity (BRSK1 (human)): 98.3% | residual activity (CAMK2G (human)): 97.9% | residual activity (CAMK4 (human)): 94.7% | residual activity (CDK1 CCNA2 (human)): 96.8% | residual activity (CHEK2 (human)): 106% | residual activity (DAPK3 (human)): 102% | residual activity (DSTYK (human)): 86.5% | residual activity (DYRK3 (human)): 101% | residual activity (EPHA2 (human)): 105% | residual activity (EPHA3 (human)): 101% | residual activity (EPHA4 (human)): 99.4% | residual activity (EPHB2 (human)): 92.1% | residual activity (FGFR3 (human)): 99.3% | residual activity (FLT3 (human)): 104% | residual activity (FYN (human)): 102% | residual activity (GSG2 (human)): 95.4% | residual activity (IRAK1 (human)): 106% | residual activity (LTK (human)): 97.9% | residual activity (MAP2K1 (human)): 97.5% | residual activity (MAP3K14 (human)): 75.7% | residual activity (MAPK11 (human)): 99.3% | residual activity (MARK2 (human)): 108% | residual activity (MINK1 (human)): 94.4% | residual activity (MLTK (human)): 98.6% | residual activity (MST4 (human)): 91.6% | residual activity (PAK1 (human)): 94.6% | residual activity (PAK3 (human)): 94.6% | residual activity (PDGFRA (human)): 97% | residual activity (PDGFRB (human)): 112% | residual activity (PNCK (human)): 109% | residual activity (PRKCE (human)): 100% | residual activity (PRKG1 (human)): 102% and 95.7% | residual activity (PRKX (human)): 106% | residual activity (ROCK2 (human)): 98.8% | residual activity (RPS6KB2 (human)): 102% | residual activity (TEK (human)): 96.1% | residual activity (TXK (human)): 100%

O=S(=O)(NCCNC/C=C/c1ccc(Br)cc1)c1cccc2cnccc12
residual activity (ABL2 (human)): 84.4% | residual activity (AURKA (human)): 104% | residual activity (AURKB (human)): 97.8% | residual activity (BLK (human)): 82.4% | residual activity (BMX (human)): 102% | residual activity (BRSK1 (human)): 92% | residual activity (CAMK2G (human)): 98.7% | residual activity (CAMK4 (human)): 95.2% | residual activity (CDK1 CCNA2 (human)): 95.3% | residual activity (CHEK2 (human)): 82.8% | residual activity (DAPK3 (human)): 97.4% | residual activity (DSTYK (human)): 91.6% | residual activity (DYRK3 (human)): 83.5% | residual activity (EPHA2 (human)): 101% | residual activity (EPHA3 (human)): 109% | residual activity (EPHA4 (human)): 86.8% | residual activity (EPHB2 (human)): 81.7% | residual activity (FGFR3 (human)): 91.3% | residual activity (FLT3 (human)): 89.6% | residual activity (FYN (human)): 107% | residual activity (GSG2 (human)): 55.1% | residual activity (IRAK1 (human)): 95.7% | residual activity (LTK (human)): 94.7% | residual activity (MAP2K1 (human)): 90.5% | residual activity (MAP3K14 (human)): 83.6% | residual activity (MAPK11 (human)): 87.2% | residual activity (MARK2 (human)): 89.3% | residual activity (MINK1 (human)): 91.1% | residual activity (MLTK (human)): 105% | residual activity (MST4 (human)): 94.8% | residual activity (PAK1 (human)): 90.2% | residual activity (PAK3 (human)): 103% | residual activity (PDGFRA (human)): 98.8% | residual activity (PDGFRB (human)): 112% | residual activity (PNCK (human)): 100% | residual activity (PRKCE (human)): 86.4% | residual activity (PRKG1 (human)): 26.3% and 41.1% | residual activity (PRKX (human)): -2.49% | residual activity (ROCK2 (human)): 15.4% | residual activity (RPS6KB2 (human)): 71.9% | residual activity (TEK (human)): 99.8% | residual activity (TXK (human)): 86.8%

N#CCCc1ccc2c(c1)-c1[nH]c3ccc([N+](=O)[O-])cc3c1CC(=O)N2
residual activity (ABL2 (human)): 49.8% | residual activity (AURKA (human)): 78.7% | residual activity (AURKB (human)): 80% | residual activity (BLK (human)): 78.8% | residual activity (BMX (human)): 99.5% | residual activity (BRSK1 (human)): 46.8% | residual activity (CAMK2G (human)): 66% | residual activity (CAMK4 (human)): 98.4% | residual activity (CDK1 CCNA2 (human)): 24.8% | residual activity (CHEK2 (human)): 12.6% | residual activity (DAPK3 (human)): 99.3% | residual activity (DSTYK (human)): 67.1% | residual activity (DYRK3 (human)): 97.6% | residual activity (EPHA2 (human)): 93.6% | residual activity (EPHA3 (human)): 93.9% | residual activity (EPHA4 (human)): 85.2% | residual activity (EPHB2 (human)): 98.5% | residual activity (FGFR3 (human)): 90.3% | residual activity (FLT3 (human)): 15.1% | residual activity (FYN (human)): 52.2% | residual activity (GSG2 (human)): 110% | residual activity (IRAK1 (human)): 74.9% | residual activity (LTK (human)): 80% | residual activity (MAP2K1 (human)): 97.1% | residual activity (MAP3K14 (human)): 161% | residual activity (MAPK11 (human)): 101% | residual activity (MARK2 (human)): 65.5% | residual activity (MINK1 (human)): 29.9% | residual activity (MLTK (human)): 88.6% | residual activity (MST4 (human)): 65.1% | residual activity (PAK1 (human)): 52.1% | residual activity (PAK3 (human)): 97.1% | residual activity (PDGFRA (human)): 87.4% | residual activity (PDGFRB (human)): 83.9% | residual activity (PNCK (human)): 107% | residual activity (PRKCE (human)): 95.4% | residual activity (PRKG1 (human)): 88.4% and 99.3% | residual activity (PRKX (human)): 78.4% | residual activity (ROCK2 (human)): 28.6% | residual activity (RPS6KB2 (human)): 96.1% | residual activity (TEK (human)): 97.6% | residual activity (TXK (human)): 67.6%

CCOc1cc2ncnc(Nc3cccc(Br)c3)c2cc1OCC
residual activity (ABL2 (human)): 52.1% | residual activity (AURKA (human)): 110% | residual activity (AURKB (human)): 91.9% | residual activity (BLK (human)): 74.9% | residual activity (BMX (human)): 95.5% | residual activity (BRSK1 (human)): 86.1% | residual activity (CAMK2G (human)): 96.5% | residual activity (CAMK4 (human)): 98.7% | residual activity (CDK1 CCNA2 (human)): 94.7% | residual activity (CHEK2 (human)): 92% | residual activity (DAPK3 (human)): 103% | residual activity (DSTYK (human)): 101% | residual activity (DYRK3 (human)): 98.5% | residual activity (EPHA2 (human)): 80.3% | residual activity (EPHA3 (human)): 83.3% | residual activity (EPHA4 (human)): 75.1% | residual activity (EPHB2 (human)): 77% | residual activity (FGFR3 (human)): 103% | residual activity (FLT3 (human)): 29% | residual activity (FYN (human)): 78.9% | residual activity (GSG2 (human)): 90.6% | residual activity (IRAK1 (human)): 95.1% | residual activity (LTK (human)): 69.7% | residual activity (MAP2K1 (human)): 96.1% | residual activity (MAP3K14 (human)): 93.4% | residual activity (MAPK11 (human)): 89% | residual activity (MARK2 (human)): 94.5% | residual activity (MINK1 (human)): 77.8% | residual activity (MLTK (human)): 89.8% | residual activity (MST4 (human)): 94.9% | residual activity (PAK1 (human)): 95.2% | residual activity (PAK3 (human)): 97.6% | residual activity (PDGFRA (human)): 84.7% | residual activity (PDGFRB (human)): 94.8% | residual activity (PNCK (human)): 103% | residual activity (PRKCE (human)): 94.5% | residual activity (PRKG1 (human)): 96% and 96.7% | residual activity (PRKX (human)): 99.8% | residual activity (ROCK2 (human)): 91.8% | residual activity (RPS6KB2 (human)): 102% | residual activity (TEK (human)): 96.4% | residual activity (TXK (human)): 80.2%
